In patent US20260308159A1, “BICYCLIC HETEROARYLAMIDES HAVING GPR68 MODULATING ACTIVITY” (RECURSION PHARMACEUTICALS, INC., priority 2023, published 2026) one finds IC50 data, which are given here for 34 compounds.

For this assay, the target named is T1, human GPR68 (Homo sapiens, UniProt Q15743).
T1 construct: encoding full-length human GPR68 (uniprot ID: Q15743); expressed in transfected cells; host or cells: HEK293T
Description: GPR68 Biochemical Assay (Promega GloSensor cAMP assay, GPR68 antagonism). The format is cell-based. Particulars: 15 min. A digest of the protocol:
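HEK293T cells transiently co-transfected with full-length human GPR68 and GloSensor plasmids, preloaded 60 min with GloSensor substrate in pH 8.0 buffer. Compounds (9-point half-log series, top 50 μM final, 0.5% DMSO) added with pH 5.5 buffer (~EC80-90 stimulation); luminescence read after 15 min at room temperature. IC50 from sigmoidal fit of % inhibition.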

Setting [1] is: HEK293T cells transiently expressing hGPR68, antagonism of pH 5.5 stimulated cAMP, read-out: hGPR68 IC50.
Where [2] appears, read: hGPR68 IC50, HEK293T cells transiently expressing hGPR68, antagonism of pH 5.5 stimulated cAMP.

Where two headings read alike, the source gives them in different places.

T1 sequence (Q15743 whole entry): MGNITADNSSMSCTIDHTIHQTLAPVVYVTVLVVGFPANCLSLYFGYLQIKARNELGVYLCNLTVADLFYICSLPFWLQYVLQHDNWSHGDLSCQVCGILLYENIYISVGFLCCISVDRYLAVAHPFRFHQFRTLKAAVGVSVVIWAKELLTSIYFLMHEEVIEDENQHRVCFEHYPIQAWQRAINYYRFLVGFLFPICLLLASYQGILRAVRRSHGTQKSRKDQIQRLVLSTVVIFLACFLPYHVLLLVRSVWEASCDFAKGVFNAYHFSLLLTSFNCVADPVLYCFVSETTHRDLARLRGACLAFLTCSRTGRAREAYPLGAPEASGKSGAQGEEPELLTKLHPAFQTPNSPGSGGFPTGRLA

Turning to `CCCc1nn2c(C(=O)N[C@H]3C[C@@H](OC(F)(F)F)C3)ccnc2c1C(N)=O` [Compound 137, 2-propyl-N7-[cis-3-(trifluoromethoxy)cyclobutyl]pyrazolo[1,5-a]pyrimidine-3,7-dicarboxamide], under setting [1], the IC50 is under 0.05 µM.
With `NC(=O)c1c(C2CC2)nn2c(C(=O)NC3Cc4ccccc43)ccnc12` (stereo not shown) [Compound 138, N7-(7-bicyclo[4.2.0]octa-1,3,5-trienyl)-2-cyclopropyl-pyrazolo[1,5-a]pyrimidine-3,7-dicarboxamide], the half-maximal inhibitory concentration (IC50) under setting [1] is under 0.05 µM.
For the compound `CCCc1nn2c(C(=O)NC3Cc4ccccc4C3)ccnc2c1C(N)=O` [Compound 139, N7-indan-2-yl-2-propyl-pyrazolo[1,5-a]pyrimidine-3,7-dicarboxamide], the IC50 under setting [1] is under 0.05 µM.
Regarding `NC(=O)c1c(C2CC2)nn2c(C(=O)NCc3ccc(F)cc3)ccnc12` [Compound 140, 2-cyclopropyl-N7-[(4-fluorophenyl)methyl]pyrazolo[1,5-a]pyrimidine-3,7-dicarboxamide], under setting [1], the half-maximal inhibitory concentration (IC50) is under 0.05 µM.
Compound `NC(=O)c1c(CO)nn2c(C(=O)N[C@H]3C[C@@H](OC(F)(F)F)C3)ccnc12` [Compound 141, 2-(hydroxymethyl)-N7-[cis-3-(trifluoromethoxy)cyclobutyl]pyrazolo[1,5-a]pyrimidine-3,7-dicarboxamide] displayed an IC50 under setting [2] of under 0.05 µM.
As for `NC(=O)c1c(OCC2CC2)nn2c(C(=O)NC3Cc4ccccc4C3)ccnc12` [Compound 142, 2-(cyclopropylmethoxy)-N7-indan-2-yl-pyrazolo[1,5-a]pyrimidine-3,7-dicarboxamide], the IC50 under setting [1] was under 0.05 µM.
For the compound `COCc1nn2c(C(=O)NC3Cc4ccccc4C3)ccnc2c1C(=O)O` [Compound 143, 7-(indan-2-ylcarbamoyl)-2-(methoxymethyl)pyrazolo[1,5-a]pyrimidine-3-carboxylic Acid], the concentration for half-maximal inhibition (IC50) under setting [1] lay in the range of 0.05 to 0.5 µM.
Same read-out and setting: the value for `COCc1nn2c(C(=O)NC3COc4ccc(Br)cc4C3)ccnc2c1C(N)=O` (stereo not shown) [Compound 144, N7-(6-bromochroman-3-yl)-2-(methoxymethyl)pyrazolo[1,5-a]pyrimidine-3,7-dicarboxamide] was under 0.05 µM.
As for `CNc1nn2c(C(=O)N[C@H]3C[C@@H](OC(F)(F)F)C3)ccnc2c1C(N)=O` [Compound 145, 2-(methylamino)-N7-[cis-3-(trifluoromethoxy)cyclobutyl]pyrazolo[1,5-a]pyrimidine-3,7-dicarboxamide], the IC50 under setting [1] is under 0.05 µM.
Turning to `COCc1nn2c(C(=S)NC3Cc4ccccc4C3)ccnc2c1C(N)=O` [Compound 148, 7-(indan-2-ylcarbamothioyl)-2-(methoxymethyl)pyrazolo[1,5-a]pyrimidine-3-carboxamide], the half-inhibitory concentration (IC50) under setting [1] was under 0.05 µM.
As for `COCc1nn2c(C(=O)NC3Cc4ccccc4C3)ccnc2c1C(N)=S` [Compound 149, 3-carbamothioyl-N-indan-2-yl-2-(methoxymethyl)pyrazolo[1,5-a]pyrimidine-7-carboxamide], under setting [1], the half-inhibitory concentration (IC50) lay in the range of 0.05 to 0.5 µM.
As to `NC(=O)c1c(C2CC2)nc2c(C(=O)NC3CCC(F)(F)CC3)ccnn12` [Compound 150, 2-cyclopropyl-N8-(4,4-difluorocyclohexyl)imidazo[1,2-b]pyridazine-3,8-dicarboxamide], the IC50 under setting [1] is under 0.05 µM.
With `NC(=O)c1c(C2CC2)nc2c(C(=O)N[C@H]3C[C@@H](OC(F)(F)F)C3)ccnn12` [Compound 151, 2-cyclopropyl-N8-[cis-3-(trifluoromethoxy)cyclobutyl]imidazo[1,2-b]pyridazine-3,8-dicarboxamide], the half-maximal inhibitory concentration (IC50) under setting [1] is under 0.05 µM.
In the case of `COCc1nn2c(C(=O)NC3Cc4ccccc4C3(F)F)ccnc2c1C(N)=O` (stereo not shown) [Compound 152, N7-(1,1-difluoroindan-2-yl)-2-(methoxymethyl)pyrazolo[1,5-a]pyrimidine-3,7-dicarboxamide], the half-inhibitory concentration (IC50) under setting [1] was under 0.05 µM.
As for `COCc1nn2c(C(=O)NC3COc4cc(F)cc(F)c43)ccnc2c1C(N)=O` (stereo not shown) [Compound 153, N7-(4,6-difluoro-2,3-dihydrobenzofuran-3-yl)-2-(methoxymethyl)pyrazolo[1,5-a]pyrimidine-3,7-dicarboxamide], the IC50 under setting [1] was under 0.05 µM.
For `COCc1nn2c(C(=O)NC3(C)CCc4ccccc43)ccnc2c1C(N)=O` (stereo not shown) [Compound 155, 2-(methoxymethyl)-N7-(1-methylindan-1-yl)pyrazolo[1,5-a]pyrimidine-3,7-dicarboxamide], under setting [1], the IC50 was in the range of 0.05 to 0.5 µM.
Under setting [2], `NC(=O)c1c(C2CC2)nn2c(C(=O)NC3CCC(F)(F)CC3)cnnc12` [Compound 156, 7-cyclopropyl-N4-(4,4-difluorocyclohexyl)pyrazolo[5,1-c][1,2,4]triazine-4,8-dicarboxamide] registered an IC50 of 0.05 to 0.5 µM.
Take `[2H]C([2H])([2H])OCc1nn2c(C(=O)N[C@H]3C[C@@H](OC(F)(F)F)C3)ccnc2c1C(N)=O` [Compound 157, 2-(trideuteriomethoxymethyl)-N7-[cis-3-(trifluoromethoxy)cyclobutyl]pyrazolo[1,5-a]pyrimidine-3,7-dicarboxamide]: the half-inhibitory concentration (IC50) under setting [1] was under 0.05 µM.
The same measure, in the same setting: the same measure for `NC(=O)c1c(COCF)nn2c(C(=O)N[C@H]3C[C@@H](OC(F)(F)F)C3)ccnc12` [Compound 158, 2-(fluoromethoxymethyl)-N7-[cis-3-(trifluoromethoxy)cyclobutyl]pyrazolo[1,5-a]pyrimidine-3,7-dicarboxamide]: under 0.05 µM.
Still for that read-out and setting: the value for `CNc1nn2c(C(=O)NC3Cc4ccccc4C3)ccnc2c1C(N)=O` [Compound 159, N7-indan-2-yl-2-(methylamino)pyrazolo[1,5-a]pyrimidine-3,7-dicarboxamide] was under 0.05 µM.
Consider `[2H]C([2H])([2H])OCc1nn2c(C(=O)NC3Cc4cccnc4C3)ccnc2c1C(N)=O` (stereo not shown) [Compound 160, N7-(6,7-dihydro-5H-cyclopenta[b]pyridin-6-yl)-2-(trideuteriomethoxymethyl)pyrazolo[1,5-a]pyrimidine-3,7-dicarboxamide], for which the IC50 under setting [1] was under 0.05 µM.
Turning to `CNC(=O)c1c(COC)nn2c(C(=O)N[C@H]3C[C@@H](OC(F)(F)F)C3)ccnc12` [Compound 161, 2-(methoxymethyl)-N3-methyl-N7-[cis-3-(trifluoromethoxy)cyclobutyl]pyrazolo[1,5-a]pyrimidine-3,7-dicarboxamide], under setting [1], the IC50 fell in the range of 0.5 to 5 µM.
Regarding `NC(=O)c1c(OCC2CC2)nn2c(C(=O)N[C@H]3C[C@@H](OC(F)(F)F)C3)ccnc12` [Compound 162, 2-(cyclopropylmethoxy)-N7-[cis-3-(trifluoromethoxy)cyclobutyl]pyrazolo[1,5-a]pyrimidine-3,7-dicarboxamide], under setting [1], the IC50 is 0.05 to 0.5 µM.
As for `NC(=O)c1c(C2CC2)nc2c(C(=O)NC3Cc4cccnc4C3)ccnn12` (stereo not shown) [Compound 163, 2-cyclopropyl-N8-(6,7-dihydro-5H-cyclopenta[b]pyridin-6-yl) imidazo[1,2-b]pyridazine-3,8-dicarboxamide], the IC50 under setting [1] was under 0.05 µM.
On the same count and under the same terms, the value for `COCc1nc2c(C(=O)NC3Cc4cc(F)cc(F)c4C3)ccnn2c1C(N)=O` (stereo not shown) [Compound 164, N8-(4,6-difluoroindan-2-yl)-2-(methoxymethyl)imidazo[1,2-b]pyridazine-3,8-dicarboxamide] was under 0.05 µM; that for `COCc1nn2c(C(=O)NC3Cc4nccn4C3)ccnc2c1C(N)=O` (stereo not shown) [Compound 165, N7-(6,7-dihydro-5H-pyrrolo[1,2-a]imidazol-6-yl)-2-(methoxymethyl)pyrazolo[1,5-a]pyrimidine-3,7-dicarboxamide] was 0.05 to 0.5 µM; that for `COCc1nn2c(C(=O)N[C@@H]3CCOc4cc(F)ccc43)ccnc2c1C(N)=O` [Compound 166, N7-[(4R)-7-fluorochroman-4-yl]-2-(methoxymethyl)pyrazolo[1,5-a]pyrimidine-3,7-dicarboxamide] was under 0.05 µM.
As to `COCc1nn2c(C(=O)N[C@@H]3COc4cc(F)ccc43)ccnc2c1C(N)=O` [Compound 167, N7-[(3S)-6-fluoro-2,3-dihydrobenzofuran-3-yl]-2-(methoxymethyl)pyrazolo[1,5-a]pyrimidine-3,7-dicarboxamide], the IC50 under setting [1] is under 0.05 µM.
With `COCc1nn2c(C(=O)NC3CS(=O)(=O)c4ccccc43)ccnc2c1C(N)=O` (stereo not shown) [Compound 168, N7-(1,1-dioxo-2,3-dihydrobenzothiophen-3-yl)-2-(methoxymethyl)pyrazolo[1,5-a]pyrimidine-3,7-dicarboxamide], the IC50 under setting [1] was under 0.05 µM.
Consider `COCc1nn2c(C(=O)N[C@H]3COc4c(Cl)cccc43)ccnc2c1C(N)=O` [Compound 169, N7-[(3R)-7-chloro-2,3-dihydrobenzofuran-3-yl]-2-(methoxymethyl)pyrazolo[1,5-a]pyrimidine-3,7-dicarboxamide], for which the IC50 under setting [1] is under 0.05 µM.
Turning to `COCc1nn2c(C(=O)NC3Cc4ccncc4C3)ccnc2c1C(N)=O` (stereo not shown) [Compound 170, N7-(6,7-dihydro-5H-cyclopenta[c]pyridin-6-yl)-2-(methoxymethyl)pyrazolo[1,5-a]pyrimidine-3,7-dicarboxamide], under setting [1], the half-inhibitory concentration (IC50) is under 0.05 µM.
On the same count and under the same terms, the value for `COCc1nn2c(C(=O)NC3CCOc4ncccc43)ccnc2c1C(N)=O` (stereo not shown) [Compound 171, N7-(3,4-dihydro-2H-pyrano[2,3-b]pyridin-4-yl)-2-(methoxymethyl)pyrazolo[1,5-a]pyrimidine-3,7-dicarboxamide] was 0.05 to 0.5 µM; that for `COCc1nn2c(C(=O)N[C@H]3CCOc4ccccc43)ccnc2c1C(N)=O` [Compound 172, N7-[(4S)-chroman-4-yl]-2-(methoxymethyl)pyrazolo[1,5-a]pyrimidine-3,7-dicarboxamide] was 0.05 to 0.5 µM.
Take `COCc1nn2c(C(=O)NC3CCOc4cc(F)c(F)cc43)ccnc2c1C(N)=O` (stereo not shown) [Compound 182, N7-(6,7-difluorochroman-4-yl)-2-(methoxymethyl)pyrazolo[1,5-a]pyrimidine-3,7-dicarboxamide]: the IC50 under setting [1] was under 0.05 µM.
